ChEMBL document CHEMBL4130530, “Lucky Switcheroo: Dramatic Potency and Selectivity Improvement of Imidazoline Inhibitors of Human Carbonic Anhydrase VII” (ACS Med Chem Lett, 2017)

Legend:
[1] = target: Carbonic anhydrase 2 (Homo sapiens, UniProt P00918); experiment: Inhibition of recombinant human carbonic anhydrase 2 incubated for 15 mins prior to testing measured for 10 to 100 secs by phenol red based stopped-flow CO2 hydration assay
[2] = target: Carbonic anhydrase 1 (Homo sapiens, UniProt P00915); experiment: Inhibition of recombinant human carbonic anhydrase 1 incubated for 15 mins prior to testing measured for 10 to 100 secs by phenol red based stopped-flow CO2 hydration assay
[3] = target: Carbonic anhydrase 4 (Homo sapiens, UniProt P22748); experiment: Inhibition of recombinant human carbonic anhydrase 4 incubated for 15 mins prior to testing measured for 10 to 100 secs by phenol red based stopped-flow CO2 hydration assay
[4] = target: Carbonic anhydrase 7 (Homo sapiens, UniProt P43166); experiment: Inhibition of recombinant human carbonic anhydrase 7 incubated for 15 mins prior to testing measured for 10 to 100 secs by phenol red based stopped-flow CO2 hydration assay
Chain of Carbonic anhydrase 7 (P43166 whole entry): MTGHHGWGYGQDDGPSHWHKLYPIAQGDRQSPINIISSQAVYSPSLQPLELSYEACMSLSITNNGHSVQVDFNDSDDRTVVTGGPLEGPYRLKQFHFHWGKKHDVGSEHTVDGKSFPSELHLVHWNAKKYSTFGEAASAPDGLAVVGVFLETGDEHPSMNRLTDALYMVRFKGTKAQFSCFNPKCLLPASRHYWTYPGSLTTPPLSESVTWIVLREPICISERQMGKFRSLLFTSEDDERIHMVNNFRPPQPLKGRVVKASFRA

Chain of Carbonic anhydrase 1 (P00915 whole entry): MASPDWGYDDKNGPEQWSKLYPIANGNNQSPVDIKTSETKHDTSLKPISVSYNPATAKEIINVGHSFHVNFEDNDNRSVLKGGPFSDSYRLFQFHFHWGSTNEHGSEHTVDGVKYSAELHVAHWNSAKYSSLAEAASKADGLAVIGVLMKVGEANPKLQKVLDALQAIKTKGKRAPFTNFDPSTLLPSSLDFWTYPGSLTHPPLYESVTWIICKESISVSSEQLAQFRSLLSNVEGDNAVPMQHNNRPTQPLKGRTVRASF
Chain of Carbonic anhydrase 4 (P22748 whole entry): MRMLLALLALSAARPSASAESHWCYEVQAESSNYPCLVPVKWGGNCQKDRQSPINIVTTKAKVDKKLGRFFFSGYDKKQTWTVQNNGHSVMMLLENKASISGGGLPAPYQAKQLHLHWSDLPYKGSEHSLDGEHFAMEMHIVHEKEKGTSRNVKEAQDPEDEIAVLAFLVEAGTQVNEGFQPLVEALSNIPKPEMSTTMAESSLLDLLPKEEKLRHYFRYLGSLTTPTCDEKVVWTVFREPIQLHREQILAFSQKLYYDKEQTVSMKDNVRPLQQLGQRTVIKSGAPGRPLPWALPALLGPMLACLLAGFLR

Row | SMILES | Ki [1] [nM] | Ki [2] [nM] | Ki [3] [nM] | Ki [4] [nM]
1 | NS(=O)(=O)c1ccc(C2=NCCN2c2ccc(Cl)cc2)cc1 | 182 | – | – | –
2 | CCOc1ccccc1N1CCN=C1c1ccc(S(N)(=O)=O)cc1 | 866 | – | – | –
3 | NS(=O)(=O)c1ccc(N2CCN=C2c2ccc(Cl)cc2)cc1 | 46.7 | 960 | 8140 | 269
4 | COc1ccc(N2CCN=C2c2ccc(S(N)(=O)=O)cc2)cc1 | 53.3 | – | – | –
5 | NS(=O)(=O)c1ccc(N2CCN=C2c2ccc(F)cc2)cc1 | 76.1 | 2340 | 9730 | 303
6 | NS(=O)(=O)c1ccc(C2=NCCN2c2ccccc2)cc1 | 376 | – | – | –
7 | Cc1ccccc1N1CCN=C1c1ccc(S(N)(=O)=O)cc1 | 61.7 | – | – | –
8 | COc1ccc(N2CCN=C2c2ccc(S(N)(=O)=O)cc2)cc1OC | 724 | – | – | –
9 | NS(=O)(=O)c1ccc(C2=NCCN2c2ccc(F)cc2)cc1 | 742 | – | – | –
10 | NS(=O)(=O)c1ccc(C2=NCCN2c2cccnc2)cc1 | 848 | – | – | –
11 | NS(=O)(=O)c1ccc(C2=NCCN2c2cncnc2)cc1 | 703 | – | – | –
